Laboratory results taken from article PMC10384011, “m-Terphenylamines, Acting as Selective COX-1 Inhibitors, Block Microglia Inflammatory Response and Exert Neuroprotective Activity” (Molecules, 2023).

Columns and labels:
BV2 microglia cells [1] = assay: ROS production (H2DCFDA) in LPS-treated BV2 microglia; format: cell-based; details: LPS 1 μg/mL, 24 h
Excerpt: Activation of toll-like receptors (TLRs), particularly the TLR4 subtype, is closely associated with the production of reactive oxygen and nitrogen species that contribute to neuronal death in the CNS. In this connection, NADPH oxidase enzymes are the main ones responsible for ROS production induced by NF-κB nuclear translocation. For this reason, we decided to assess the ROS levels of BV2 microglia cells treated with LPS and the effect of our compounds under this toxicity protocol. To this end, the compounds, at different concentrations (3 μM of 3a, 3b, and 3d and 10 μM of 3c) were incubated with 1 μg/mL LPS for 24 h. After this period, ROS production was measured with the fluorescent probe H2DCFDA. Treatment with LPS increased by 1.75-fold the amount of ROS compared with control cells.
(§1) Cultures were seeded into flasks containing supplemented medium and kept at 37 °C in a humidified atmosphere of 5% CO2 and 95% air. For assays, BV-2 cells were subcultured in 48-well plates at a seeding density of 1 × 10^5 cells per well. Cells were treated with LPS (Sigma-Aldrich, Madrid, Spain) for 24 or 48 h before confluence in RPMI with 1% FBS.
To measure cellular ROS, we used the molecular probe 2′,7′-dichlorodihydrofluorescein diacetate (H2DCFDA). Glial cells were loaded with 5 µM H2DCFDA as it was previously described (Parada et al., 2015). Fluorescence was measured in a fluorescence microplate reader (FLUOstar Galaxy; BMG Labtech, Offenburg, Germany). Wavelengths of excitation and emission were 485 and 520 nm, respectively. The relative pixel intensity was measured in identical regions with (ImageJ 1.52a software, National Institutes of Health, Bethesda, MD, USA).

[2] = system: organotypic hippocampal cultures (OHCs); assay: Cell death (propidium iodide uptake, CA1) in organotypic hippocampal cultures treated with LPS; format: cell-based, Sprague-Dawley rats; details: LPS 1 μg/mL, 24 h
Description: With these promising data in hand, we selected compound 3b for its study in a more complex preparation. In vivo administration of LPS produces a proinflammatory cascade that causes memory deficits, an increase of inflammatory markers, and impairment of hippocampal glutamatergic transmission, contributing to neuronal death. All of these functional changes have been described to take place mainly in the hippocampus region. Thus, we subjected organotypic hippocampal cultures (OHCs) to LPS (1 μg/mL) to assess the protective effect of COX-1 inhibition. This kind of explant allows us to study the microglia-neuron network in a more complex and physiological model of cerebral insult.
OHCs were conducted on 8–10-day-old Sprague-Dawley rats supplied by the animal facilities of Universidad Autónoma de Madrid (Madrid, Spain). Cultures were prepared according to the methods described by Stoppini et al. with some modifications. […]
Cell death was determined in the CA1 region by staining the OHCs with propidium iodide (PI). Thirty minutes before analyzing fluorescence, slices were incubated with PI (1 µg/mL). Fluorescence was measured in an epifluorescence Olympus BX50WI microscope. […] Fluorescence was measured in each slice using ImageJ.

BV2 microglia cells [3] = assay: Nitrite release (Griess reaction) in LPS-treated BV2 microglia; format: cell-based; details: 100 nM, LPS 1 μg/mL, basal = 100
ovine COX-1 = target: T1, ovine COX-1 (Ovis aries, UniProt P05979); assay: Cyclooxygenase colorimetric inhibitor screening assay, COX-1; format: biochemical; details: for inhibition at 50 µM: ovine COX-1, 50 µM, % Inhibition at 50 µM (converted); for inhibition at 50 µM / IC50: read-out: oCOX-1; for IC50: ovine COX-1, colorimetric kit, triplicate;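 as to all read-outs here: COX peroxidase activity read colorimetrically as oxidized TMPD at 590 nm, arachidonic acid as substrate, inhibitors tested at 0.001–50 µM from DMSO stocks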
T1 construct: purchased Cayman Chemicals 701050
T1 sequence (P05979 25-600): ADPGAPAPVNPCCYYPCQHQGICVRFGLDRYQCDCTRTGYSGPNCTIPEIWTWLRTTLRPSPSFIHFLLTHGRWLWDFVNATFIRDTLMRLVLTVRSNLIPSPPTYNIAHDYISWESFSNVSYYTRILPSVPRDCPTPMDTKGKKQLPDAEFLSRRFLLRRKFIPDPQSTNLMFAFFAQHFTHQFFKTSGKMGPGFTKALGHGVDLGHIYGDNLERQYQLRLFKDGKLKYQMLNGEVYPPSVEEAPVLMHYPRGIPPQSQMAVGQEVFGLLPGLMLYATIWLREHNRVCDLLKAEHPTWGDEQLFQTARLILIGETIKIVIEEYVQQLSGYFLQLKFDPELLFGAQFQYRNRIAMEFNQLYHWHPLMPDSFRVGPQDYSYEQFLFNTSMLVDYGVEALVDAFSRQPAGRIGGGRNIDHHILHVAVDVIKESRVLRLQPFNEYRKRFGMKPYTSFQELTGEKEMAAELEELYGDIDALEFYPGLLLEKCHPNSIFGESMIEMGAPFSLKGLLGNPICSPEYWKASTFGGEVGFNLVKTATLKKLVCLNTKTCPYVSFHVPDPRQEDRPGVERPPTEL
Description: (§2) Newly synthesized compounds were evaluated for their ability to inhibit ovine COX-1 or human COX-2 enzyme by measuring the extent (%) of enzyme activity inhibition at different concentrations (0.001, 0.01, 0.1, 1, 10, 50 μM). […] The assay kit measures the peroxidase component of COXs that is assayed colorimetrically by monitoring the appearance of oxidized N,N,N′,N′-tetramethyl-p-phenylenediamine (TMPD) a λ = 590 nm. […] Stock solutions of test compounds were dissolved in DMSO.

human COX-2 = target: T2, human COX-2 (Homo sapiens, UniProt P35354); assay: Cyclooxygenase colorimetric inhibitor screening assay, COX-2; format: biochemical; details: read-out: hCOX-2; for inhibition at 50 µM: human COX-2, 50 µM; for IC50: human COX-2, colorimetric kit;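 as to all read-outs here: peroxidase activity of COX-2 followed colorimetrically through formation of oxidized TMPD at 590 nm, with arachidonic acid as substrate, compounds tested from 0.001 to 50 µM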
T2 construct: purchased Cayman Chemicals 701050
T2 sequence (P35354 18-604): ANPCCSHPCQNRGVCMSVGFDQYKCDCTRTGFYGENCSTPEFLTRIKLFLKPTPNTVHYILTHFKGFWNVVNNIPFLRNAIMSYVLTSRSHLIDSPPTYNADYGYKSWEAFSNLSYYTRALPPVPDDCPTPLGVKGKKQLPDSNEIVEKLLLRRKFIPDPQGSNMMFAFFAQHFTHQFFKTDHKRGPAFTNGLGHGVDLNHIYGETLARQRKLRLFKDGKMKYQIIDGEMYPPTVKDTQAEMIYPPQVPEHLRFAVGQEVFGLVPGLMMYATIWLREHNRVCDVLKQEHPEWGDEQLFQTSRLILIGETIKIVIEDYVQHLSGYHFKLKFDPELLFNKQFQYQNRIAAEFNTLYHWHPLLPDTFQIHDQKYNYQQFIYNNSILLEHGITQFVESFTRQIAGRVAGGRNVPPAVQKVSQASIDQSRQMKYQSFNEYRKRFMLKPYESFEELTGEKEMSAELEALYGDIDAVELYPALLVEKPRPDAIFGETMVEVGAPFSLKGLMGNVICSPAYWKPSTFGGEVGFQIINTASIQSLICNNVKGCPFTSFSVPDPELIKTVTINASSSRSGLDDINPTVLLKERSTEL
Description: as §2

BV2 microglia cells [4] = assay: Nitrite release (Griess reaction) in LPS-treated BV2 microglia; format: cell-based; details: LPS 1 μg/mL, basal = 100
Excerpt: The COX-1 inhibition data prompted us to undertake further work on the activity of compounds 3 in a neuroinflammation situation. Once we had verified that the compounds studied were not toxic per se in microglia BV2 cells (see the data in Table S1), we measured the nitrites released to determine the efficacy of our compounds in reducing microglia activation. Nitric oxide is a potent mediator of the classic activated microglia phenotype (M1); in fact, the lack of nitrite release correlated with an anti-inflammatory microglia (M2) phenotype. Therefore, we evaluated the response of the BV2 microglia cells to a challenge of 1 μg/mL LPS. For this purpose, BV2 microglia cells were incubated with LPS, a well-known agonist of the toll-like receptor 4 (TLR4) that causes a neuroinflammatory response, in combination with increasing concentrations of our COX-1 inhibitors (1, 3, and 10 μM). […] Similar results were observed after 48 h of the LPS treatment.
as §1
The NO assay was performed using the previously reported protocols. Briefly, 100 μL of culture supernatants were mixed with the same volume of Griess assay regent (1% sulfanilamide (Sigma Aldrich, Madrid, Spain), 0.1% naphthylethylenediamine dihydrochloride, and 2.5% phosphoric acid). Ten minutes later, the 560-nm absorbance was measured.

BV2 microglia cells [5] = assay: LPS-induced activated (ramified) phenotype of BV2 microglia; format: cell-based; details: LPS 1 μg/mL, 24 h
Excerpt: Next, we set out to study the changes in microglia phenotype under this toxicity protocol. As mentioned above, microglia are comprised of variable morphology cells that are always adapting to the surrounding media and, therefore, to physiopathological conditions. Indeed, morphological appearance is well correlated with the different states of microglia activation. The microglia-activated phenotype (M1), which is the classical state of this kind of cell in response to proinflammatory insults such as LPS, is linked with the overexpression of a plethora of cytokines and inflammatory markers, namely TNF, IL-1β, IL-6, MCP-1 or CD11b. All of these markers are commonly associated with morphological changes towards an amoeboid phenotype in primary cultures or in in vivo studies. Nevertheless, it has been recently described that BV2 microglia, as well as macrophages, turn from rounded to spindle-shaped or multipolar phenotypes in response to various M1 proinflammatory stimuli such as LPS/IFNγ or spinal cord injury conditioned media. In this context, we assessed the ability of our compounds to prevent the morphological changes induced by LPS by analyzing the percentage of BV2 ramified cells (multipolar or spindle) over the total BV2 per field following cell incubation with our compounds and 1 μg/mL LPS for 24 h.
as §1

**Q.** What does the source list for `COc1ccc(-n2nc(C(F)(F)F)cc2-c2ccc(Cl)cc2)cc1` [SC-560, reference compound]?
**A.** ROS production induced by LPS (BV2 microglia cells [1]; 100 nM): significantly reverted ROS production almost to basal levels; Cell death (PI uptake in CA1) induced by LPS [2]: prevented; Nitrite Release after 24 h (BV2 microglia cells [3]; 24 h): 114 ± 9 %; Nitrite Release after 48 h (BV2 microglia cells [3]; 48 h): 135 ± 8 %

**Q.** How did the inhibition at 50 µM (ovine COX-1) turn out when `Nc1cc(-c2ccccc2)cc(-c2ccccc2)c1` [Compound 3a, 5′-Amino-m-terphenyl] was run?
**A.** 86%

**Q.** What about the IC50 (ovine COX-1) of the same compound?
**A.** 0.8 ± 0.39 µM

**Q.** What about the COX-1/COX-2 inhibition ratio (ovine COX-1; ovine COX-1 vs human COX-2) of the same compound?
**A.** around 7

**Q.** And the inhibition at 50 µM (human COX-2)?
**A.** 70%

**Q.** What about the IC50 (human COX-2) of the same compound?
**A.** 5.4 µM

**Q.** And the “Nitrite Release after 24 h” value (BV2 microglia cells [4]; 1 μM)?
**A.** 130 ± 14%

**Q.** What about the “Nitrite Release after 48 h” value (BV2 microglia cells [4]; 1 μM) of the same compound?
**A.** 145 ± 17%

**Q.** And the “Nitrite Release after 24 h” value (BV2 microglia cells [4]; 3 μM)?
**A.** 110 ± 7 %

**Q.** And the “Nitrite Release after 48 h” value (BV2 microglia cells [4]; 3 μM)?
**A.** 119 ± 10 %

**Q.** What about the “Nitrite Release after 24 h” value (BV2 microglia cells [4]; 10 μM) of the same compound?
**A.** 122 ± 10%

**Q.** And the “Nitrite Release after 48 h” value (BV2 microglia cells [4]; 10 μM)?
**A.** 120 ± 15 %

**Q.** And the “Reduction of the number of BV2 ramified cells” value (from here on “Reduction”) (BV2 microglia cells [5]; 3 μM)?
**A.** 60%

**Q.** What about the “ROS production induced by LPS” value (BV2 microglia cells [1]; 3 μM) of the same compound?
**A.** significantly reverted ROS production almost to basal levels

**Q.** `Nc1cc(-c2ccccc2)cc(-c2ccc(Cl)cc2)c1` [Compound 3c, 4-Chloro-5′-amino-m-terphenyl] was tested. Which inhibition at 50 µM (ovine COX-1) did it give?
**A.** 100%

**Q.** What about the IC50 (ovine COX-1) of the same compound?
**A.** 4.7 ± 3.04 µM

**Q.** What about the “COX-1 selectivity (in words)” value (ovine COX-1; ovine COX-1 vs human COX-2) of the same compound?
**A.** complete selectivity towards COX-1

**Q.** And the IC50 (human COX-2)?
**A.** > 50 µM

**Q.** What about the “Nitrite Release after 24 h” value (BV2 microglia cells [4]; 1 μM) of the same compound?
**A.** 135 ± 6%

**Q.** And the “Nitrite Release after 48 h” value (BV2 microglia cells [4]; 1 μM)?
**A.** 181 ± 9%

**Q.** And the “Nitrite Release after 24 h” value (BV2 microglia cells [4]; 3 μM)?
**A.** 117 ± 8%

**Q.** What about the “Nitrite Release after 48 h” value (BV2 microglia cells [4]; 3 μM) of the same compound?
**A.** 163 ± 5%

**Q.** What about the “Nitrite Release after 24 h” value (BV2 microglia cells [4]; 10 μM) of the same compound?
**A.** 110 ± 6 %

**Q.** What about the “Nitrite Release after 48 h” value (BV2 microglia cells [4]; 10 μM) of the same compound?
**A.** 138 ± 7%

**Q.** And the “Reduction” value (BV2 microglia cells [5]; 10 μM)?
**A.** 60%

**Q.** And the “ROS production induced by LPS” value (BV2 microglia cells [1]; 3 μM)?
**A.** significantly reverted ROS production almost to basal levels

**Q.** For `COc1ccc(-c2cc(N)cc(-c3ccccc3)c2)cc1` [Compound 3e, 4-Methoxy-5′-amino-m-terphenyl], which inhibition at 50 µM (ovine COX-1) is on record?
**A.** 73%

**Q.** And the IC50 (ovine COX-1)?
**A.** 0.9 ± 0.76 µM

**Q.** What about the inhibition at 50 µM (human COX-2) of the same compound?
**A.** 8%

**Q.** And the “Nitrite Release after 24 h” value (BV2 microglia cells [4]; 1 μM)?
**A.** 124 ± 9%

**Q.** And the “Nitrite Release after 48 h” value (BV2 microglia cells [4]; 1 μM)?
**A.** 144 ± 15%

**Q.** What about the “Nitrite Release after 24 h” value (BV2 microglia cells [4]; 3 μM) of the same compound?
**A.** 110 ± 6 %

**Q.** And the “Nitrite Release after 48 h” value (BV2 microglia cells [4]; 3 μM)?
**A.** 133 ± 13 %

**Q.** What about the “Nitrite Release after 24 h” value (BV2 microglia cells [4]; 10 μM) of the same compound?
**A.** 103 ± 9 %

**Q.** And the “Nitrite Release after 48 h” value (BV2 microglia cells [4]; 10 μM)?
**A.** 131 ± 13 %

**Q.** What about the “Reduction” value (BV2 microglia cells [5]; 3 μM) of the same compound?
**A.** 60%
